Assay results reported in US20160015786A1, “MOBILIZING AGENTS AND USES THEREFOR” (MATER MEDICAL RESEARCH INSTITUTE LIMITED, priority 2013, published 2016).

B1: G-CSF: cytokine granulocyte colony-stimulating factor, the main mobilizing agent used in the clinic; recombinant human G-CSF (Amgen) (protein, UniProt P09919 31-207, looked up)
Granulocyte …: TPLGPASSLPQSFLLKCLEQVRKIQGDGAALQEKLVSECATYKLCHPEELVLLGHSLGIPWAPLSSCPSQALQLAGCLSQLHSGLFLYQGLLQALEGISPELGPTLDTLQLDVADFATTIWQQMEELGMAPALQPTQGAMPAFASAFQRRAGGVLVASHLQSFLEVSYRVLRHLAQP
modifications: filgrastim

What was measured:
[1] = system: hematopoietic stem and progenitor cells; experiment: Phenotypic HSCs, HSPCs and myeloid progenitors in blood, spleen and bone marrow by flow cytometry; format: in vivo, C57BL/6 mice; conditions: for total number of HSCs and progenitors in the BM: Example 7: Compound D 60 mg/kg; for total number of HSCs and progenitors in the BM / total number of myeloid progenitors (LKS−) mobilized: E and F 20 mg/kg, + G-CSF vs vehicle + G-CSF; for total number of myeloid progenitors (LKS−) mobilized: Example 7: D 60 mg/kg
Description: (§1) Additional HIF-α potentiating agents in the form of PHD inhibitors were tested for their ability to enhance mobilization induced by G-CSF. Compound A, Compound B or Compound C, were tested in male, 7 weeks-old C57BL/6 mice. Mice were injected twice daily sub-cutaneously with rhuG-CSF at a dose of 125 μg/kg per injection for four days. Mice were gavaged with 20 mg/kg Compound A, Compound B, Compound C or vehicle control once daily for three days beginning on day 1 of the experiment.
(§2) At the end of treatment, blood was harvested by cardiac puncture, mice were sacrificed by cervical dislocation and spleens harvested. Femurs were removed, cleaned and the bone marrow was flushed with 1 mL PBS+10% newborn calf serum (NCS).
(§3) The number of phenotypic hematopoietic stem and progenitor cells remaining in the bone marrow following treatment was measured by flow cytometry using antibodies specific for lineage markers (CD3, CD5, CD45R/B220, F4/80, Gr1, CD41, Ter119), Sca-1, Kit, CD48 and CD150. Similarly, the number of phenotypic hematopoietic stem cells mobilized into the blood and spleen were measured. Colony assays were also performed on blood and spleen to determine the number of colony forming cells per mL of blood and per spleen. All results are presented as mean f standard deviation with n=6 per groups. Levels of significance for differences were calculated using the Student's t-test.
All procedures were approved by the animal experimentation ethics committee of the University of Queensland. All experiments were performed on nine to twelve-week old C57BL/6 male mice or genetically modified mice back-crossed at least 10 times into C57BL/6. Recombinant human G-CSF (Amgen, Thousand Oaks, Calif.) was injected twice daily subcutaneously at 125 μg/kg per injection for up to 4 consecutive days. Plerixafor (AMD3100 octohydrochloride, Tocris Bioscience, Bristol, UK) was injected intraperitoneally as a single 16 mg/kg dose corresponding to 10 mg/kg of AMD3100 base. Tissues were harvested 1 h after Plerixafor administration. […] Compounds H and J were administered at 60 mg/kg and Compound K was administered at 100 mg/kg. Control mice were injected with an equivalent volume of saline. At specified time-points, mice were anesthetized with isoflurane before cardiac puncture to harvest blood. Mice were then euthanized by cervical dislocation and BM and bones harvested.
Following flushing with PBS plus 2% NCS, enriched central BM cells were pelleted at 370×g for 5 minutes at 4° C. and resuspended in CD16/CD32 hybridoma 2.4G2 supernatant to block IgGFc receptors. HSCs were stained with the biotinylated lineage antibody cocktail (CD3, CD5, B220, CD11b, Gr-1, Ter119) and biotinylated CD41 together with streptavidin (SAV)-Pacific Blue, anti-Sca-1-PECY7, anti-KIT-APC, CD48-FITC and CD150-PE as previously described (17). Data were acquired on a CyAn (Dako Cytomation) flow cytometer and analyzed following compensation with single color controls using FlowJo software (Tree Star, Ashland, Oreg.).

[2] = Spleen weight after mobilization treatment; format: in vivo, C57BL/6 mice; conditions: Example 7: D 60 mg/kg, E and F 20 mg/kg, + G-CSF vs vehicle + G-CSF
Description: as §1, with “Mice were gavaged with 20 mg/kg Compound A, Compound B, Compound C or vehicle control once daily for three days beginning on day 1 of the experiment.” left out
as §2

[3] = system: white blood cells; experiment: White blood cell number per mL of blood after mobilization treatment; format: in vivo, C57BL/6 mice; conditions: Example 7: D 60 mg/kg, E 20 mg/kg, + G-CSF vs vehicle + G-CSF
Description: as §1, §2

[4] = system: colony-forming cells (CFCs); experiment: Mobilization of colony-forming cells (CFC/CFU) to blood and spleen, colony assays; format: in vivo, C57BL/6 mice; conditions: for number of CFUs mobilized from the bone marrow to the blood and spleen: Example 7: D 60 mg/kg, E and F 20 mg/kg, + G-CSF vs vehicle + G-CSF, FIG. 13
Description: Mobilization of colony-forming cells (CFCs) to the blood and spleen were measured (FIG. 1B).
This was divided into two experiments in which G-CSF was administered for 2 days in one experiment and 4 days in the other (FIG. 2). […] Mobilization of CFCs, phenotypic Lin^−CD41^−Sca1^+Kit^+ HSPCs and Lin^−CD41^− Sca1^+Kit^+CD48^−CD150^+ HSCs were measured in blood and spleens.
Additional HIF-α potentiating agents in the form of PHD inhibitors were tested for their ability to enhance mobilization induced by G-CSF.
as §2
as §3, with “All results are presented as mean f standard deviation with n=6 per groups.” left out
All procedures were approved by the animal experimentation ethics committee of the University of Queensland. […] Plerixafor (AMD3100 octohydrochloride, Tocris Bioscience, Bristol, UK) was injected intraperitoneally as a single 16 mg/kg dose corresponding to 10 mg/kg of AMD3100 base. Tissues were harvested 1 h after Plerixafor administration. […] Control mice were injected with an equivalent volume of saline. At specified time-points, mice were anesthetized with isoflurane before cardiac puncture to harvest blood. Mice were then euthanized by cervical dislocation and BM and bones harvested.
Optimal concentrations of mouse IL-3, IL-6 and soluble kit ligand were added as conditioned media from stably transfected BHK cell lines. Colonies were counted after 7 days culture at 37° C. in a humidified incubator containing 5% CO2.

[5] = system: colony-forming cells (CFCs); conditions: Plerixafor; reference (7); cited from earlier work
[6] = system: CD34+ cells; conditions: cited from earlier work
[7] = Example 7: 20 mg/kg + G-CSF vs vehicle + G-CSF, FIGS. 12A-B

Molecule | total number of HSCs and progenitors in the BM [1] | total number of myeloid progenitors (LKS−) mobilized ([1]; FIGS. 12A-B) | increase in spleen weight [2] | number of white blood cells per mL of blood [3] | number of CFUs mobilized from the bone marrow to the blood and spleen [4] | also measured
O=C(O)CNC(=O)c1c(O)n(C2CCCCC2)c(=O)n(C2CCCCC2)c1=O [Compound D, [(1,3-Dicyclohexyl-6-hydroxy-2,4-dioxo-1,2,3,4-tetrahydro-pyrimidine-5-carbonyl)-amino]-acetic acid] | did not significantly alter | significantly increased | approximately 2 fold | significant increase | significantly increased | 
CC(C)c1nn(Cc2ccc(-c3ccc(F)cc3)cc2F)c(=O)c(C(=O)NCC(=O)O)c1O [Compound E, {[2-(3,4′-Difluoro-biphenyl-4-ylmethyl)-5-hydroxy-6-isopropyl-3-oxo-2,3-dihydro-pyridazine-4-carbonyl]-amino}-acetic acid] | did not significantly alter | significant increase | approximately 2 fold | significant increase | significantly increased | total number of HSCs (LSK48-150+) mobilized from the bone marrow [1, 7]: significant increase; total number of HSPCs (LSK48+ and LSK) mobilized from the bone marrow [1, 7]: significant increase
c1cc(CN2CCCNCCNCCCNCC2)ccc1CN1CCCNCCNCCCNCC1 [Plerixafor, 1,1′-[1,4-phenylenebis(methylene)]-bis-1,4,8,11-tetra-azacyclotetradecane] |  |  |  |  |  | time of peak mobilization post-injection [5]: 1 h; mobilization of HSPC to the spleen ([4]; 1 hr following Plerixafor treatment with or without Compound X, FIG. 1D): no significant mobilization; enhancement of CFC mobilization in response to G-CSF ([4]; Plerixafor 16 mg/kg 1 hour prior harvest + 2 days G-CSF, p<0.005): 10 fold; patients who failed with G-CSF alone who still fail to mobilize adequately ([6]; G-CSF and Plerixafor, references (8-9)): 40%; patients who previously failed to mobilize with G-CSF alone who reach the minimal threshold ([6]; Plerixafor daily 1 hr prior to aphaeresis from day 4 of G-CSF, references (8-9)): approximately 60%
B1 |  |  |  |  |  | chemotherapy-treated patients who fail to reach the minimal threshold of 2×10^6 CD34+ cells/kg ([6]; autologous setting, in response to G-CSF, reference (1)): 30-60%
